Earlier results as cited in patent publication US7307164B2, “β-amino heterocyclic dipeptidyl peptidase inhibitors for the treatment or prevention of diabetes” (Merck & Co., Inc., priority 2002, dated 2007).

Assays:
[1] = tested on: cardiac allograft; conditions: rats; survival from day 7 to day 14
[2] = tested on: hematopoiesis; conditions: mouse, cyclophosphamide-induced neutropenia
[3] = biological target: T1, DP-IV (Homo sapiens, UniProt P27487)
T1 construct: GRF is rapidly degraded in plasma to GRF[3-44]
T1 sequence (P27487 whole entry): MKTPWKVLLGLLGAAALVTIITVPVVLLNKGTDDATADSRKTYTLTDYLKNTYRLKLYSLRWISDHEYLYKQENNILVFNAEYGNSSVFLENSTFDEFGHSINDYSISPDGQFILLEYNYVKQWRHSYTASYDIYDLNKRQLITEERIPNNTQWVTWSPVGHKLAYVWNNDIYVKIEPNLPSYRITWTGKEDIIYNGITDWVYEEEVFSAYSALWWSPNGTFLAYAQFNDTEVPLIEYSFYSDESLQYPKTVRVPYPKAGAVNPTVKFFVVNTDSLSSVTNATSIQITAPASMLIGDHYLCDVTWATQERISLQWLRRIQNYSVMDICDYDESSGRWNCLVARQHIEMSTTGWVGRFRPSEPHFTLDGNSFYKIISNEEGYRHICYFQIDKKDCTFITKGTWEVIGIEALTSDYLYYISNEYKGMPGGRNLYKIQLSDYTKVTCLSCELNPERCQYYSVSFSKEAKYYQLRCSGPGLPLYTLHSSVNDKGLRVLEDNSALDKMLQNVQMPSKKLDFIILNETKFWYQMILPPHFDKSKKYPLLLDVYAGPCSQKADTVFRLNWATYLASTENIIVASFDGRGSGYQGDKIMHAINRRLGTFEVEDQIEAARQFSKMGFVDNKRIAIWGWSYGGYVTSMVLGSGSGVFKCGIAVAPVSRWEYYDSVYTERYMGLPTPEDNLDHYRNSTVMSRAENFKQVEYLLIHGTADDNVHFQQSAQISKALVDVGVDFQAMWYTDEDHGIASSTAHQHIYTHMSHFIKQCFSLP

SMILES: CC(C)N1CCC(c2ccccc2)(c2ccccc2)CC1 [Prodipine, Pro-Pro-diphenyl-phosphonate]
- cardiac allograft survival [1]: double cardiac allograft survival

SMILES: CC(C)[C@H](N)C(=O)N1CCC[C@H]1B(O)O [Val-Boro-Pro]
- hematopoiesis [2]: stimulated hematopoiesis

SMILES: CC[C@H](C)[C@H](N)C(=O)N1CCC[C@H]1C(=O)N[C@H](C(=O)O)[C@@H](C)CC [diprotin A]
- degradation of GRF in plasma to GRF[3-44] [3]: prevented
